The source made the active and inactive calls. The calls are words filed in the database; no cut-off is given here.
How the values were obtained:
P388 = test: Cytotoxicity against mouse P388 cells; type: functional, cell-based
Bacillus subtilis = test: Antibacterial activity against Bacillus subtilis at 60 ug/disk; type: functional; details: for zone of inhibition at 60 µg/disc: read-out: IZ
[1] = tested on: Trichophyton mentagrophytes; test: Antifungal activity against Trichophyton mentagrophytes at 60 ug/disk; type: functional; details: for zone of inhibition at 60 µg/disc: read-out: IZ
Poliovirus 1 = test: Antiviral activity against Human poliovirus 1 at 40 ug/well; type: functional, organism-based

| Compound | IC50 (P388) | zone of inhibition at 60 µg/disc (Bacillus subtilis) | zone of inhibition at 60 µg/disc [1] | Activity (Poliovirus 1) | Activity (Bacillus subtilis) | Activity [1] |
| --- | --- | --- | --- | --- | --- | --- |
| COc1cc([C@H]2[C@@H](O)N(C)C(=O)[C@]23CCCN3C)c(Br)cc1Br [AMATHASPIRAMIDE A] | > 12.5 µg/mL | 1 mm | 1 mm | – | – | – |
| COc1cc([C@H]2[C@@H](O)N(C)C(=O)[C@]23CCC(=O)N3C)c(Br)cc1Br [AMATHASPIRAMIDE B] | > 12.5 µg/mL | – | – | inactive | inactive | inactive |
| COc1cc([C@H]2[C@@H](O)N(C)C(=O)[C@]23CCCN3)c(Br)cc1Br [AMATHASPIRAMIDE C] | > 12.5 µg/mL | – | – | inactive | inactive | inactive |
| COc1cc([C@H]2[C@@H](O)N(C)C(=O)[C@]23CCC=N3)c(Br)cc1Br [AMATHASPIRAMIDE E] | > 12.5 µg/mL | 1 mm | 1 mm | Active | – | – |

Source: ChEMBL document CHEMBL1141842, “Amathaspiramides A-F, novel brominated alkaloids from the marine bryozoan amathia wilsoni” (J Nat Prod, 1999)
